From US20250009819A1, “NOVEL PROBIOTICS AND USE THEREOF” (PBLBIOLAB CO., LTD., priority 2021, published 2025)

How the values were obtained:
Clostridium difficile = Clostridium difficile proliferation in gut microbiota (PCR); assay type: cell-based; details: human feces culture; lactic acid bacteria 1×10^6 CFU/mL; anaerobic 24 hr
Method: Fresh human feces were suspended in anaerobic medium (GAM, Nissui Pharmaceutical Co., Ltd., Japan) and allowed to stand for 10 min. The supernatant was diluted with 10,000-fold anaerobic medium, 0.05 mL of the dilution was transplanted into 5 mL of freshly made anaerobic medium, and lactic acid bacteria (1×10^6 CFU/mL) were implanted and incubated anaerobically for 24 hr. This culture medium was divided into two, one was centrifuged (5000 rpm, 20 minutes), the precipitated DNA was isolated using the QIAamp DNA stool mini kit (Qiagen, Germany), and Clostridium difficile (primer: forward, 5′-[…]-3′ (SEQ ID NO: 4); reverse, 5′-[…]-3′ (SEQ ID NO: 5) was quantified by PCR. The reaction product was first treated at 95° C. for 30 seconds, followed by 42 cycles of 5 seconds at 95° C. and 30 seconds at 72° C. for analysis. In addition, one culture medium was sonicated, centrifuged, and filter-sterilized, and the amount of LPS in the supernatant was measured using an ELISA kit.

Neuropeptide Y (NPY) = Neuropeptide Y (NPY) expression in PC12 phaeochromocytoma cells; assay type: cell-based; details: LPS 200 ng/ml; lactic acid bacteria 1×10^4 CFU/ml; 24 hr
Method: PC12 cells obtained from the Korean Cell Line Bank were cultured in DMEM medium supplemented with 10% FBS and 1% antibiotics, and dispensed at 1×10^6 cells per well in a 12-well plate. Then, LPS (200 ng/ml) was added to each well along with lactic acid bacteria (1×10^4 CFU/ml) and incubated for 24 hr. The cells and supernatants were collected, sonicated and centrifuged, and the amount of NPY in the supernatant was measured by ELISA kit.

IL-10 = IL-10 expression in LPS-treated macrophages (ELISA); assay type: cell-based, C57BL/6 mice; details: macrophages treated with lactic acid bacteria and LPS for 24 hours
Method: (§1) C57BL/6 mice (male, 6 weeks old, 20-23 g) were subjected to an intraperitoneal injection of 2 ml of sterile 4% thioglycolate solution, and after 96 hours, the mice were anesthetized and injected with 8 ml of RPMI 1640 medium through the peritoneal cavity. Then, after 5-10 minutes, the RPMI medium (macrophages) in the mouse peritoneal cavity was extracted, centrifuged at 1000 g for 10 minutes, and washed again with RPMI 1640 medium twice. Macrophages were seeded in 24-well plates at a count of 0.5×10^6 in each well, and treated with lactic acid bacteria and LPS, an inflammatory response-inducing substance, for 24 hours. TNF-α and IL-10 cytokine expression amount in the culture supernatant was then measured by ELISA Kit.

BDNF = BDNF expression in SH-SY5Y cells; assay type: cell-based; details: LPS 200 ng/ml; lactic acid bacteria 1×10^4 CFU/ml; 24 h
Method: SH-SY5Y cells obtained from the Korean Cell Line Bank were cultured in DMEM medium supplemented with 10% FBS and 1% antibiotics, and dispensed at 2×10^6 cells per well in a 12-well plate. Then, LPS (200 ng/ml) was added to each well along with lactic acid bacteria (1×10^4 CFU/ml) and incubated for 24 h. The cells and supernatants were collected, sonicated and centrifuged, and the amount of BDNF in the supernatant was measured by ELISA kit.

gut microbiota = assay: LPS production in gut microbiota (ELISA); assay type: cell-based; details: human feces culture; lactic acid bacteria 1×10^6 CFU/mL; anaerobic 24 hr
Method: Fresh human feces were suspended in anaerobic medium (GAM, Nissui Pharmaceutical Co., Ltd., Japan) and allowed to stand for 10 min. The supernatant was diluted with 10,000-fold anaerobic medium, 0.05 mL of the dilution was transplanted into 5 mL of freshly made anaerobic medium, and lactic acid bacteria (1×10^6 CFU/mL) were implanted and incubated anaerobically for 24 hr.

TNF-α = TNF-α expression in LPS-treated macrophages (ELISA); assay type: cell-based, C57BL/6 mice; details: macrophages treated with lactic acid bacteria and LPS for 24 hours
Method: as §1

[1] = Antioxidant activity (DPPH, in vitro); assay type: biochemical; details: DPPH 0.2 mM; lactic acid bacteria suspension 1×10^8 CFU/ml; 37° C. 20 min
Method: DPPH (2,2-Diphenyl-1-picrylhydrazyl) was dissolved in ethanol to a concentration of 0.2 mM to prepare DPPH solution. Lactic acid bacteria suspension (1×10^8 CFU/ml) or vitamin C solution (1 g/ml) was added to 0.1 ml of the above DPPH solution and incubated at 37° C. for 20 min. The culture was centrifuged at 3000 rpm for 5 min to obtain a supernatant. The absorbance of the supernatant was then measured at 517 nm and the antioxidant activity of the lactic acid bacteria was calculated.

Bifidobacterium catenulatum NK225
Gut microbiota Inhibition of difficile bacteria proliferation (Clostridium difficile): + (weakly (+; >20-60%))
PC12 cell Induction of NPY expression (Neuropeptide Y (NPY)): − (not or less than 20% (−; <20%))
Macrophage Induction of IL-10 expression (IL-10): + (weakly (+; >20-60%))
SHSY5Y cell Induction of BDNF expression (BDNF): − (not or less than 20% (−; <20%))
Gut microbiota Inhibition of LPS production (gut microbiota): − (not or less than 20% (−; <20%))
Macrophage Inhibition of TNF-α expression (TNF-α): + (weakly (+; >20-60%))
Antioxidant activity [1]: + (weakly (+; >20-60%))

Bifidobacterium catenulatum NK226
Gut microbiota Inhibition of difficile bacteria proliferation (Clostridium difficile): + (weakly (+; >20-60%))
PC12 cell Induction of NPY expression (Neuropeptide Y (NPY)): − (not or less than 20% (−; <20%))
Macrophage Induction of IL-10 expression (IL-10): − (not or less than 20% (−; <20%))
SHSY5Y cell Induction of BDNF expression (BDNF): + (weakly (+; >20-60%))
Gut microbiota Inhibition of LPS production (gut microbiota): − (not or less than 20% (−; <20%))
Macrophage Inhibition of TNF-α expression (TNF-α): − (not or less than 20% (−; <20%))
Antioxidant activity [1]: + (weakly (+; >20-60%))

Bifidobacterium catenulatum NK227
Gut microbiota Inhibition of difficile bacteria proliferation (Clostridium difficile): + (weakly (+; >20-60%))
PC12 cell Induction of NPY expression (Neuropeptide Y (NPY)): + (weakly (+; >20-60%))
Macrophage Induction of IL-10 expression (IL-10): + (weakly (+; >20-60%))
SHSY5Y cell Induction of BDNF expression (BDNF): − (not or less than 20% (−; <20%))
Gut microbiota Inhibition of LPS production (gut microbiota): + (weakly (+; >20-60%))
Macrophage Inhibition of TNF-α expression (TNF-α): + (weakly (+; >20-60%))
Antioxidant activity [1]: + (weakly (+; >20-60%))

Bifidobacterium infantis NK213
Gut microbiota Inhibition of difficile bacteria proliferation (Clostridium difficile): + (weakly (+; >20-60%))
PC12 cell Induction of NPY expression (Neuropeptide Y (NPY)): − (not or less than 20% (−; <20%))
Macrophage Induction of IL-10 expression (IL-10): + (weakly (+; >20-60%))
SHSY5Y cell Induction of BDNF expression (BDNF): − (not or less than 20% (−; <20%))
Gut microbiota Inhibition of LPS production (gut microbiota): − (not or less than 20% (−; <20%))
Macrophage Inhibition of TNF-α expression (TNF-α): + (weakly (+; >20-60%))
Antioxidant activity [1]: + (weakly (+; >20-60%))

Bifidobacterium infantis NK214
Gut microbiota Inhibition of difficile bacteria proliferation (Clostridium difficile): + (weakly (+; >20-60%))
PC12 cell Induction of NPY expression (Neuropeptide Y (NPY)): + (weakly (+; >20-60%))
Macrophage Induction of IL-10 expression (IL-10): − (not or less than 20% (−; <20%))
SHSY5Y cell Induction of BDNF expression (BDNF): − (not or less than 20% (−; <20%))
Gut microbiota Inhibition of LPS production (gut microbiota): + (weakly (+; >20-60%))
Macrophage Inhibition of TNF-α expression (TNF-α): − (not or less than 20% (−; <20%))
Antioxidant activity [1]: ++ (strongly (++; >60-90%))

Bifidobacterium infantis NK215
Gut microbiota Inhibition of difficile bacteria proliferation (Clostridium difficile): + (weakly (+; >20-60%))
PC12 cell Induction of NPY expression (Neuropeptide Y (NPY)): + (weakly (+; >20-60%))
Macrophage Induction of IL-10 expression (IL-10): + (weakly (+; >20-60%))
SHSY5Y cell Induction of BDNF expression (BDNF): − (not or less than 20% (−; <20%))
Gut microbiota Inhibition of LPS production (gut microbiota): + (weakly (+; >20-60%))
Macrophage Inhibition of TNF-α expression (TNF-α): + (weakly (+; >20-60%))
Antioxidant activity [1]: ++ (strongly (++; >60-90%))

Bifidobacterium longum NK216
Gut microbiota Inhibition of difficile bacteria proliferation (Clostridium difficile): − (not or less than 20% (−; <20%))
PC12 cell Induction of NPY expression (Neuropeptide Y (NPY)): + (weakly (+; >20-60%))
Macrophage Induction of IL-10 expression (IL-10): − (not or less than 20% (−; <20%))
SHSY5Y cell Induction of BDNF expression (BDNF): − (not or less than 20% (−; <20%))
Gut microbiota Inhibition of LPS production (gut microbiota): ++ (strongly (++; >60-90%))
Macrophage Inhibition of TNF-α expression (TNF-α): − (not or less than 20% (−; <20%))
Antioxidant activity [1]: ++ (strongly (++; >60-90%))

Bifidobacterium longum NK218
Gut microbiota Inhibition of difficile bacteria proliferation (Clostridium difficile): + (weakly (+; >20-60%))
PC12 cell Induction of NPY expression (Neuropeptide Y (NPY)): + (weakly (+; >20-60%))
Macrophage Induction of IL-10 expression (IL-10): − (not or less than 20% (−; <20%))
SHSY5Y cell Induction of BDNF expression (BDNF): + (weakly (+; >20-60%))
Gut microbiota Inhibition of LPS production (gut microbiota): + (weakly (+; >20-60%))
Macrophage Inhibition of TNF-α expression (TNF-α): − (not or less than 20% (−; <20%))
Antioxidant activity [1]: + (weakly (+; >20-60%))

Bifidobacterium pseudocatenulatum NK228
Gut microbiota Inhibition of difficile bacteria proliferation (Clostridium difficile): − (not or less than 20% (−; <20%))
PC12 cell Induction of NPY expression (Neuropeptide Y (NPY)): + (weakly (+; >20-60%))
Macrophage Induction of IL-10 expression (IL-10): − (not or less than 20% (−; <20%))
SHSY5Y cell Induction of BDNF expression (BDNF): + (weakly (+; >20-60%))
Gut microbiota Inhibition of LPS production (gut microbiota): ++ (strongly (++; >60-90%))
Macrophage Inhibition of TNF-α expression (TNF-α): − (not or less than 20% (−; <20%))
Antioxidant activity [1]: + (weakly (+; >20-60%))

Bifidobacterium pseudocatenulatum NK230
Gut microbiota Inhibition of difficile bacteria proliferation (Clostridium difficile): + (weakly (+; >20-60%))
PC12 cell Induction of NPY expression (Neuropeptide Y (NPY)): + (weakly (+; >20-60%))
Macrophage Induction of IL-10 expression (IL-10): − (not or less than 20% (−; <20%))
SHSY5Y cell Induction of BDNF expression (BDNF): + (weakly (+; >20-60%))
Gut microbiota Inhibition of LPS production (gut microbiota): + (weakly (+; >20-60%))
Macrophage Inhibition of TNF-α expression (TNF-α): − (not or less than 20% (−; <20%))
Antioxidant activity [1]: + (weakly (+; >20-60%))

Lactobacillus casei NK193
Gut microbiota Inhibition of difficile bacteria proliferation (Clostridium difficile): − (not or less than 20% (−; <20%))
PC12 cell Induction of NPY expression (Neuropeptide Y (NPY)): − (not or less than 20% (−; <20%))
Macrophage Induction of IL-10 expression (IL-10): + (weakly (+; >20-60%))
SHSY5Y cell Induction of BDNF expression (BDNF): + (weakly (+; >20-60%))
Gut microbiota Inhibition of LPS production (gut microbiota): + (weakly (+; >20-60%))
Macrophage Inhibition of TNF-α expression (TNF-α): + (weakly (+; >20-60%))
Antioxidant activity [1]: + (weakly (+; >20-60%))

Lactobacillus casei NK194
Gut microbiota Inhibition of difficile bacteria proliferation (Clostridium difficile): + (weakly (+; >20-60%))
PC12 cell Induction of NPY expression (Neuropeptide Y (NPY)): + (weakly (+; >20-60%))
Macrophage Induction of IL-10 expression (IL-10): + (weakly (+; >20-60%))
SHSY5Y cell Induction of BDNF expression (BDNF): + (weakly (+; >20-60%))
Gut microbiota Inhibition of LPS production (gut microbiota): + (weakly (+; >20-60%))
Macrophage Inhibition of TNF-α expression (TNF-α): − (not or less than 20% (−; <20%))
Antioxidant activity [1]: ++ (strongly (++; >60-90%))
